Experimental data as given in PMC12035797, “Peptidomimetics Activating the Proteasome: A New Perspective for Parkinson’s Treatment” (Journal of Medicinal Chemistry, 2025).

Columns and labels:
[1] = target: T1, human 20S proteasome, ChT-L peptidase; experiment: Chymotrypsin-like (ChT-L) activity of h20S probed with Suc-LLVY-AMC; format: biochemical
T1 construct: human proteasome isolated from erythrocytes; from tissue; host or cells: human erythrocytes
Description: (§1) To assess the influence of substitutions increasing proteolytic stability on the modulators’ capacity to stimulate chymotrypsin-like, trypsin-like, and caspase-like activity of h20S, we used classic fluorogenic substrates: Suc-LLVY-AMC, Boc-LRR-AMC, and Z-LLE-AMC, respectively.
(§2) The effect of all synthesized peptidomimetics on the catalytic activity of the proteasome was tested using a human proteasome isolated from erythrocytes. Suc-LLVY-AMC, Boc-LRR-AMC, and Z-LLE-AMC fluorogenic substrates (Bachem, Bubendorf, Switzerland) were used for assessment of the chymotrypsin-, trypsin-, and caspase-like activities, respectively. A homemade FRET-type substrate Dabcyl-EDANS (Lys(Dabcyl)-[…]EDANS)-Gly)[26] was used as an additional probe. Stock solutions of the substrates and tested peptidomimetics were prepared in dimethyl sulfoxide (DMSO), ensuring that the final concentration of DMSO in all samples remained consistent at 2%. The small fluorogenic substrates were used at a final concentration of 100 μM, while Dabcyl-EDANS was prepared at a final concentration of 15 μM. […] Activity tests were conducted in 96-well plates using 50 mM Tris/HCl, pH 8.0, as an assay buffer. The final concentration of h20S proteasome was adjusted to 0.002 mg/mL (2.8 nM). The fluorescence of released aminomethylcoumarin (AMC) was monitored at 460 nm (λex was 380 nm), while the hydrolysis of Dabcyl-EDANS was detected by measuring emission at 493 nm (λex was set at 335 nm). Fluorescence measurements were taken continuously every 2 min over a 60 min period at 37 °C using a Tecan Infinite M200Pro spectrofluorometer (Tecan Trading AG, Männedorf, Switzerland). All activity assays were performed in at least three independent replicates. The relative activity was calculated in relation to the catalytic activity of the vehicle (DMSO)-treated latent proteasome, which was regarded as 100%. Statistical analysis was performed using the one-way ANOVA followed by Tukey’s post-hoc test. P-value <0.05 was considered statistically significant.

[2] = test system: T2, human 20S proteasome, T-L peptidase; experiment: Trypsin-like (T-L) activity of h20S probed with Boc-LRR-AMC; format: biochemical; conditions: 100 μM Boc-LRR-AMC
T2 construct: human proteasome isolated from erythrocytes; from tissue; host or cells: human erythrocytes
Description: as §1, §2

hippocampal cells = experiment: Survival of hippocampal cells after 7 days with activators (PFF model); format: cell-based, mouse; conditions: 0.5 and 2.5 μM, PFF-treated
Description: Encouraged by the results received, we tested the ability of the modulator-CPP constructs to increase α-synuclein degradation in a cell model using primary mouse neuronal cells. The presence of Lewy-like neurites and Lewy-like bodies containing aggregated α-synuclein with phosphorylated serine 129 (pS129-αsyn) is a characteristic feature of the brains of people with Parkinson’s disease. To mimic these aggregations, we introduced a solution of preformed fibrils (PFFs) to the media of neuronal cells, which led to the induction of α-synuclein phosphorylation and its aggregation in neurons isolated from mouse embryos. PFFs are purified, prion-like fibrils of α-synuclein that are produced by expressing a recombinant monomeric protein in bacteria. Seven days after PFFs are introduced to the cells, large aggregates are visible in the cell soma, often next to the cell nucleus. We added the PFF solution to the hippocampal cells, and after an hour of incubation, we introduced solutions of the activator. After 7 days, we immunostained neuronal cells using a monoclonal antibody against the NeuN protein, which is commonly used in neuronal differentiation studies to assess their functional status. Additionally, we stained the nuclei of all incubated cells with DAPI. […]

[3] = test system: hippocampal neurons containing Lewy body-like pS129-αsyn aggregates; experiment: pS129-α-synuclein aggregates in PFF-treated hippocampal neurons; format: cell-based, mouse; conditions: 7 days after PFFs
Description: Encouraged by the results received, we tested the ability of the modulator-CPP constructs to increase α-synuclein degradation in a cell model using primary mouse neuronal cells. The presence of Lewy-like neurites and Lewy-like bodies containing aggregated α-synuclein with phosphorylated serine 129 (pS129-αsyn) is a characteristic feature of the brains of people with Parkinson’s disease. To mimic these aggregations, we introduced a solution of preformed fibrils (PFFs) to the media of neuronal cells, which led to the induction of α-synuclein phosphorylation and its aggregation in neurons isolated from mouse embryos. PFFs are purified, prion-like fibrils of α-synuclein that are produced by expressing a recombinant monomeric protein in bacteria. Seven days after PFFs are introduced to the cells, large aggregates are visible in the cell soma, often next to the cell nucleus. We added the PFF solution to the hippocampal cells, and after an hour of incubation, we introduced solutions of the activator. After 7 days, we immunostained neuronal cells using a monoclonal antibody against the NeuN protein, which is commonly used in neuronal differentiation studies to assess their functional status. Additionally, we stained the nuclei of all incubated cells with DAPI. […] It is noteworthy that the number of cells in samples with activators was slightly higher (Figure 5), which may indicate neuroprotective properties. […] The main tool for monitoring this process was an antibody against pS129-αsyn. […] The fluorescent microscopy images (Figure 5) show the difference between the amounts of aggregated protein in the control sample and in the samples containing activators at different concentrations.
Cells were isolated from pregnant mouse embryos at E16.0 and plated on precoated with poly-L-lysine wells of 96-well plates (PerkinElmer/Revvity Inc., Waltham, MA, USA) at 25,000 cells/well. The final medium volume was 150 μL/well. Cells were incubated at 37 °C, 5% CO2. […]

C[C@@H](O)[C@H](NC(=O)[C@H](Cc1ccccc1)NC(=O)[C@H](Cc1ccc(O)cc1)NC(=O)CN(CCCCN)C(=O)[C@H](CCCNC(=N)N)NC(=O)[C@H](CCCNC(=N)N)NC(=O)[C@H](CCCNC(=N)N)NC(=O)[C@H](CCC(N)=O)NC(=O)[C@H](CCCNC(=N)N)NC(=O)[C@H](CCCNC(=N)N)NC(=O)[C@H](CCCCN)NC(=O)[C@H](CCCCN)NC(=O)[C@@H](N)CCCNC(=N)N)C(=O)NCC(=O)N[C@@H](CO)C(=O)N[C@@H](CCCCN)C(=O)N[C@@H](CC(=O)O)C(=O)N[C@@H](Cc1c[nH]c2ccccc12)C(=O)N[C@@H](CCCNC(=N)N)C(=O)N[C@@H](CO)C(=O)N[C@@H](Cc1ccc(O)cc1)C(=O)N[C@@H](Cc1ccc(O)cc1)C(=O)N[C@@H](CO)C(=O)O [1f]
EC50 ([1]; Suc-LLVY-AMC, n = 6, EC50 = concentration causing 50% growth of activity vs vehicle control): 540 ± 100 nM | stimulation of proteasome activity ([1]; as summed up in Conclusions, substrate not named there): approximately 17 times | stimulation of the ChT-L peptidase ([1]; at 1 μM concentration, Suc-LLVY-AMC): approximately 16 fold | T-L stimulating capacity, Boc-LRR-AMC [2]: activated the T-L less and less with an increasing concentration | cytotoxicity to hippocampal cells (hippocampal cells): did not show cytotoxicity to hippocampal cells | effect on hippocampal cells containing α-synuclein aggregates ([3]; 0.5 and 2.5 μM): effectively reduced the number of hippocampal cells containing α-synuclein | reduction of the number of aggregates formed ([3]; very low concentration): 50%
